From patent US9382234B2, “Enhancer of Zeste Homolog 2 inhibitors” (GlaxoSmithKline LLC, priority 2012, dated 2016) come the findings set out here.

In general, IC50 refers to the midpoint of a concentration-inhibition curve. A higher IC50 goes with lower potency.

T1 sequence (Q15910 whole entry): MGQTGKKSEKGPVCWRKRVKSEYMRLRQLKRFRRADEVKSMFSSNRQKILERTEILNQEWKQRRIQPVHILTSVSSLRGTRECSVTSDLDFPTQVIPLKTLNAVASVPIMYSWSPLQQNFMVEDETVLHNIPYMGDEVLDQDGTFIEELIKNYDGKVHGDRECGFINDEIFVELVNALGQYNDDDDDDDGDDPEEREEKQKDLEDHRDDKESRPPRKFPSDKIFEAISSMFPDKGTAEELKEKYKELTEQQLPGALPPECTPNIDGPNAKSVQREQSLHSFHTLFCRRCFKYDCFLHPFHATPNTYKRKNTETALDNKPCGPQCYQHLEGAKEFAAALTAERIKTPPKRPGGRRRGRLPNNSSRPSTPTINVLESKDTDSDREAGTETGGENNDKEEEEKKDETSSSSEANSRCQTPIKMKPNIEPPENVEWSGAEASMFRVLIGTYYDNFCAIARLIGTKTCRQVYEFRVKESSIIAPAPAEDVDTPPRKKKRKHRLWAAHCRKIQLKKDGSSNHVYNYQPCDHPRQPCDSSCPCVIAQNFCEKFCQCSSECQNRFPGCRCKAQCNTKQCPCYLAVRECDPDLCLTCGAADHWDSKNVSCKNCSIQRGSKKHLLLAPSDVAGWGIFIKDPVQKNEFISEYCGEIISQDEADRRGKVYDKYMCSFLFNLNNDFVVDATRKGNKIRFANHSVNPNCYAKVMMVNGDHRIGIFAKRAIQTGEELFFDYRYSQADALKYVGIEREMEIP
T1 sequence (O75530 whole entry partner): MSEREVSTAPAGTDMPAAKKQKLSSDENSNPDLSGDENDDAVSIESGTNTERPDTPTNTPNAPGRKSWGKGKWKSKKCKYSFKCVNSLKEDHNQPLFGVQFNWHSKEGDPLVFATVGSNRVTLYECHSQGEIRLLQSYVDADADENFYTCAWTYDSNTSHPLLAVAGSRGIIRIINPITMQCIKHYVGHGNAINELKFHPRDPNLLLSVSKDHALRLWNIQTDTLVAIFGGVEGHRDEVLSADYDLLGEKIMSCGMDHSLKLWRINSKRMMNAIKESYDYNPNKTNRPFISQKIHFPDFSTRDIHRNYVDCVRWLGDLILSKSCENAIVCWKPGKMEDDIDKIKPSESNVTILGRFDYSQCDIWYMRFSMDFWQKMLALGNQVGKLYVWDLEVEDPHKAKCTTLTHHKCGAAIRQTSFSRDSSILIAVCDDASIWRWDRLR
T1 sequence (Q15022 whole entry partner): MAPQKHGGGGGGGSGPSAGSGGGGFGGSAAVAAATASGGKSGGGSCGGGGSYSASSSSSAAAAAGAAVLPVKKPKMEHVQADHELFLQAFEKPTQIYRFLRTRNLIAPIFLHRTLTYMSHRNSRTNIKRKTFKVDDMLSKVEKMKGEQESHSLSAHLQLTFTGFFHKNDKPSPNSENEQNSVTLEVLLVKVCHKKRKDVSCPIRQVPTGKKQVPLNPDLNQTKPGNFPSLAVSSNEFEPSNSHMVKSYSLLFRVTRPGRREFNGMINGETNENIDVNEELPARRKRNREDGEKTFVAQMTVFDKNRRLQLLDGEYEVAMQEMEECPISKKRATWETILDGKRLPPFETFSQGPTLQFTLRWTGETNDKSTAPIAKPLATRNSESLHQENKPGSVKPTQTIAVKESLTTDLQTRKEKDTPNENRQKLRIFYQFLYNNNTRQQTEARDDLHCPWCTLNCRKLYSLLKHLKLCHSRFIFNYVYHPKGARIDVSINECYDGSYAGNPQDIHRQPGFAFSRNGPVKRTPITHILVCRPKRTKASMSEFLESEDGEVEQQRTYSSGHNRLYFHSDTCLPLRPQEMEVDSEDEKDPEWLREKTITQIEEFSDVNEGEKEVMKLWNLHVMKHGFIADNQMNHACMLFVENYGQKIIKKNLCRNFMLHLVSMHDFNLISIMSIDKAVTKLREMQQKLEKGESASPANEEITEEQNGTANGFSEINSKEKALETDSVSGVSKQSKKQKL
T1 sequence (Q09028 whole entry partner): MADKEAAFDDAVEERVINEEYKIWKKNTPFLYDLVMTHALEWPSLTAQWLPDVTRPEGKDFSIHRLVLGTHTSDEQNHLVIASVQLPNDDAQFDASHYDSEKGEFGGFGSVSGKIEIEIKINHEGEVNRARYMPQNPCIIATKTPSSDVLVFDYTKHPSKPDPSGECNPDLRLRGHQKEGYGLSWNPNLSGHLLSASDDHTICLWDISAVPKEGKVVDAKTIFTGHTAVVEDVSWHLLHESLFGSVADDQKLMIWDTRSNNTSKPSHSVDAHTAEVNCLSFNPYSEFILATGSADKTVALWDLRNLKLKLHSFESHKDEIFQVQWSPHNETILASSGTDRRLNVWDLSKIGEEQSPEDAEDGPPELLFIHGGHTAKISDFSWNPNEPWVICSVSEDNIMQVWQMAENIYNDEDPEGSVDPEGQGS
T1 sequence (Q6ZN18 whole entry partner): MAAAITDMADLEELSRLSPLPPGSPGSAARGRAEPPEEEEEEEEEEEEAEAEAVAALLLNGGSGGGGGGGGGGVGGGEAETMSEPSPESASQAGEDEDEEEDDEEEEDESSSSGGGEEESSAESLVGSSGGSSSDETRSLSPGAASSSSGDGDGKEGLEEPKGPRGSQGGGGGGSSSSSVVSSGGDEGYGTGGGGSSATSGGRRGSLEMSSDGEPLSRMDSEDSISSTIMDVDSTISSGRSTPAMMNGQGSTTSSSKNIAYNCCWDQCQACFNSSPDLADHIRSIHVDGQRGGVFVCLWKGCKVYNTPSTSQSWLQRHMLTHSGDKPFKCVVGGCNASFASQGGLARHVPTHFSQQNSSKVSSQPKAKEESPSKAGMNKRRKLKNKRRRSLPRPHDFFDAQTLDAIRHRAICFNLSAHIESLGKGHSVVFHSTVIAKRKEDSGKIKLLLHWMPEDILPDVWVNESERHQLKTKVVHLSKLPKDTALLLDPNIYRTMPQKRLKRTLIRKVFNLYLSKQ

This assay addresses T1, EZH2 within the PRC2 complex (Homo sapiens, UniProt Q15910).
T1 construct: FLAG; made in house; host or cells: Sf9 cells
As to the kind of experiment: EZH2 methyltransferase scintillation proximity assay (SPA) with PRC2 complex. Format: biochemical. As to conditions: 3H-SAM methyl transfer to Histone H3 of HeLa mononucleosomes; 30 min preincubation, 1 hour reaction.
`Cc1cc(=O)c(CNC(=O)c2cc(Cl)cc(OC3CCN(C(=O)OCc4ccccc4)CC3)c2C)c(C)[nH]1` [Example 1, Benzyl 4-(5-chloro-3-(((2,6-dimethyl-4-oxo-1,4-dihydropyridin-3-yl)methyl)carbamoyl) -2-methylphenoxy)piperidine-1-carboxylate] yielded a half-maximal inhibitory concentration (IC50) of 200 nM.

With `Cc1cc(=O)c(CNC(=O)c2cc(Cl)cc(OC3CCOCC3)c2C)c(C)[nH]1` [Example 2, 5-Chloro-N-((2,6-dimethyl-4-oxo-1,4-dihydropyridin-3-yl)methyl)-2-methyl-3-((tetrahydro-2H-pyran-4-yl)oxy)benzamide], the IC50 turned out to be 6310 nM.

Regarding `Cc1cc(=O)c(CNC(=O)c2cc(Cl)cc(OC3CCN(c4ccncn4)CC3)c2C)c(C)[nH]1` [Example 3, 5-Chloro-N-((2,6-dimethyl-4-oxo-1,4-dihydropyridin-3-yl)methyl)-2-methyl-3-((1-(pyrimidin-4-yl)piperidin-4-yl)oxy)benzamide], the IC50 turned out to be 251 nM.

Consider `Cc1cc(=O)c(CNC(=O)c2cc(Cl)cc(O[C@H]3CC[C@H](C(=O)NCc4ccccc4)CC3)c2C)c(C)[nH]1` [Example 4, 3-(((trans)-4-(Benzylcarbamoyl)cyclohexyl)oxy)-5-chloro-N-((2,6-dimethyl-4-oxo-1,4-dihydropyridin-3-yl)methyl)-2-methylbenzamide], for which the concentration for half-maximal inhibition (IC50) was 40 nM.

In turn, `Cc1cc(=O)c(CNC(=O)c2cc(Cl)cc(OC3CCN(c4ccncn4)CC3)c2C)c(C)o1` [Example 5, 5-Chloro-N-((2,6-dimethyl-4-oxo-4H-pyran-3-yl)methyl)-2-methyl-3-((1-(pyrimidin-4-yl)piperidin-4-yl)oxy)benzamide] showed an IC50 of 3160 nM.

As for `CCN(c1cc(Cl)cc(C(=O)NCc2c(C)oc(C)cc2=O)c1C)[C@H]1CC[C@H](N(C)C)CC1` [Example 6, 5-Chloro-N-((2,6-dimethyl-4-oxo-4H-pyran-3-yl)methyl)-3-(((trans)-4-(dimethylamino)cyclohexyl)(ethyl)amino)-2-methylbenzamide], the concentration for half-maximal inhibition (IC50) is 40 nM.

Molecule `Cc1cc(=O)c(CNC(=O)c2cc(Cl)cc(OC3CCN(C(=O)OC(C)(C)C)CC3)c2C)c(C)[nH]1` [Example 8, tert-Butyl 4-(5-chloro-3-(((2,6-dimethyl-4-oxo-1,4-dihydropyridin-3-yl)methyl)carbamoyl)-2-methylphenoxy)piperidine-1-carboxylate] displayed an IC50 of 795 nM.

For the molecule `Cc1cc(=O)c(CNC(=O)c2cc(Cl)cc(OC3CCNCC3)c2C)c(C)[nH]1` [Example 9, 5-Chloro-N-((2,6-dimethyl-4-oxo-1,4-dihydropyridin-3-yl)methyl)-2-methyl-3-(piperidin-4-yloxy)benzamide], it took 2500 nM to reach half-maximal inhibition (IC50).

For the molecule `Cc1cc(=O)c(CNC(=O)c2cc(Cl)cc(O[C@H]3CC[C@H](N4CCCC4)CC3)c2C)c(C)[nH]1` [Example 12, 5-Chloro-N-((2,6-dimethyl-4-oxo-1,4-dihydropyridin-3-yl)methyl)-2-methyl-3-(((1r,4r)-4-(pyrrolidin-1-yl)cyclohexyl)oxy)benzamide], it took 795 nM to reach half-maximal inhibition (IC50).

On to `Cc1cc(=O)c(CNC(=O)c2cc(Cl)cc(OC3CCN(C)CC3)c2C)c(C)[nH]1` [Example 13, 5-Chloro-N-((2,6-dimethyl-4-oxo-1,4-dihydropyridin-3-yl)methyl)-2-methyl-3-((1-methylpiperidin-4-yl)oxy)benzamide], for which the half-maximal inhibitory concentration (IC50) amounted to 5000 nM.

For the molecule `Cc1cc(=O)c(CNC(=O)c2cc(Cl)cc(O[C@H]3CC[C@H](N(C)C)CC3)c2C)c(C)[nH]1` [Example 14, 5-Chloro-N-((2,6-dimethyl-4-oxo-1,4-dihydropyridin-3-yl)methyl)-3-(((trans)-4-(dimethylamino)cyclohexyl)oxy)-2-methylbenzamide], 395 nM corresponded to half-maximal inhibition (IC50).

On to `CCN(c1cc(Br)cc(C(=O)NCc2c(C)[nH]c(C)cc2=O)c1C)C1CCOCC1` [Example 15, 5-Bromo-N-((2,6-dimethyl-4-oxo-1,4-dihydropyridin-3-yl)methyl)-3-(ethyl(tetrahydro-2H-pyran-4-yl)amino)-2-methylbenzamide], for which half-maximal inhibition (IC50) required 40 nM.

Consider `CCN(c1cc(Cl)cc(C(=O)NCc2c(C)[nH]c(C)cc2=O)c1C)[C@H]1CC[C@H](N(C)C)CC1` [Example 16, 5-Chloro-N-((2,6-dimethyl-4-oxo-1,4-dihydropyridin-3-yl)methyl)-3-(((trans)-4-(dimethylamino)cyclohexyl)(ethyl)amino)-2-methylbenzamide], for which the IC50 was 3 nM.

As for `CCN(c1cc(Cl)cc(C(=O)NCc2c(C)[nH]c(C)c(N)c2=O)c1C)C1CCOCC1` [Example 17], the IC50 amounted to 32 nM.

As to `CCN(c1cc(Br)cc(C(=O)NCc2c(C)[nH]c(C)c(N)c2=O)c1C)[C@H]1CC[C@H](N(C)C)CC1` [Example 18, N-((5-Amino-2,6-dimethyl-4-oxo-1,4-dihydropyridin-3-yl)methyl)-5-bromo-3-(((1r,4r)-4-(dimethylamino)cyclohexyl)(ethyl)amino)-2-methylbenzamide], 32 nM corresponded to half-maximal inhibition (IC50).

Turning to `CCN(c1cc(Br)cc(C(=O)NCc2c(C)[nH]c(C)cc2=O)c1C)[C@H]1CC[C@H](N(C)C)CC1` [Example 19, 5-Bromo-N-((2,6-dimethyl-4-oxo-1,4-dihydropyridin-3-yl)methyl)-3-(((1r,4r)-4-(dimethylamino)cyclohexyl)(ethyl)amino)-2-methylbenzamide], it took 40 nM to reach half-maximal inhibition (IC50).

In the case of `CCN(c1cc(Br)cc(C(=O)NCc2c(C)[nH]c(C)c(N)c2=O)c1C)[C@H]1CC[C@H](N2CCOCC2)CC1` [Example 20, N-((5-Amino-2,6-dimethyl-4-oxo-1,4-dihydropyridin-3-yl)methyl)-5-bromo-3-(ethyl((1r,4r)-4-morpholinocyclohexyl)amino)-2-methylbenzamide], the IC50 is 50 nM.
